Reference: ChEMBL document CHEMBL3885881, “DrugMatrix”

Organism: Rattus norvegicus
Assay: DrugMatrix - Regimen: Daily Repeat
Type: toxicity, organism-based, Sprague-Dawley
Parameters: regimen Daily Repeat, gender Male, age 6-8 weeks
Settings: in vivo, po, route oral GAVAGE, vehicle .5 % CMC; for BASOPHIL / EOSINOPHIL / ERYTHROCYTE COUNT / HEMATOCRIT / HEMOGLOBIN / LEUKOCYTE COUNT / LYMPHOCYTE / MEAN CORPUSCULAR HEMOGLOBIN / MEAN CORPUSCULAR HEMOGLOBIN CONCENTRATION / MEAN CORPUSCULAR VOLUME / MONOCYTE / NEUTROPHIL / PLATELET COUNT: tissue Blood; for ALANINE AMINOTRANSFERASE / ALBUMIN / ALKALINE PHOSPHATASE / ASPARTATE AMINOTRANSFERASE / BLOOD UREA NITROGEN / CARBON DIOXIDE / CHLORIDE / CHOLESTEROL / CREATINE PHOSPHOKINASE / CREATININE / GLUCOSE / LACTATE DEHYDROGENASE / LIPASE / PHOSPHORUS / POTASSIUM / SODIUM / TOTAL BILIRUBIN / TOTAL PROTEIN / URIC ACID: tissue Plasma
[1] = 0 mg/kg, 72 h, dose level Control, time 3 day
[2] = 0 mg/kg, 120 h, dose level Control, time 5 day
[3] = 0 mg/kg, […], dose level Control, time 14 day
[4] = 200 mg/kg, 72 h, dose level High, time 3 day
[5] = 200 mg/kg, 120 h, dose level High, time 5 day

Structure (SMILES): Nc1cccc(Cl)c1 [3-CHLOROANILINE]
- BASOPHIL [1]: 0.62%
- EOSINOPHIL [1]: 0.52%
- ERYTHROCYTE COUNT [1]: 6.33 x10E6/uL
- HEMATOCRIT [1]: 41.88%
- HEMOGLOBIN [1]: 13.52 G/DL
- LEUKOCYTE COUNT [1]: 11.39 x10E3/uL
- LYMPHOCYTE [1]: 86.18%
- MEAN CORPUSCULAR HEMOGLOBIN [1]: 21.35 pg
- MEAN CORPUSCULAR HEMOGLOBIN CONCENTRATION [1]: 32.23 G/DL
- MEAN CORPUSCULAR VOLUME [1]: 66.25 fL
- MONOCYTE [1]: 1.93%
- NEUTROPHIL [1]: 9.1%
- PLATELET COUNT [1]: 1204.5 x10E3/uL
- ALANINE AMINOTRANSFERASE [1]: 43 u/L
- ALBUMIN [1]: 4.08 G/DL
- ALKALINE PHOSPHATASE [1]: 426.33 u/L
- ASPARTATE AMINOTRANSFERASE [1]: 72.5 u/L
- BLOOD UREA NITROGEN [1]: 16.67 mg/dL
- CARBON DIOXIDE [1]: 28.33 mmol/L
- CHLORIDE [1]: 103.5 MEQ/L
- CHOLESTEROL [1]: 78.83 mg/dL
- CREATINE PHOSPHOKINASE [1]: 325.67 u/L
- CREATININE [1]: 0.48 mg/dL
- GLUCOSE [1]: 171.67 mg/dL
- LACTATE DEHYDROGENASE [1]: 107.33 u/L
- LIPASE [1]: 11.83 u/L
- PHOSPHORUS [1]: 12.55 mg/dL
- POTASSIUM [1]: 6.57 MEQ/L
- SODIUM [1]: 145.67 MEQ/L
- TOTAL BILIRUBIN [1]: 0.42 mg/dL
- TOTAL PROTEIN [1]: 6.1 G/DL
- URIC ACID [1]: 1.57 mg/dL
- BASOPHIL [2]: 0.48%
- EOSINOPHIL [2]: 0.67%
- ERYTHROCYTE COUNT [2]: 6.69 x10E6/uL
- HEMATOCRIT [2]: 44.17%
- HEMOGLOBIN [2]: 13.78 G/DL
- LEUKOCYTE COUNT [2]: 7.86 x10E3/uL
- LYMPHOCYTE [2]: 85.9%
- MEAN CORPUSCULAR HEMOGLOBIN [2]: 20.6 pg
- MEAN CORPUSCULAR HEMOGLOBIN CONCENTRATION [2]: 31.25 G/DL
- MEAN CORPUSCULAR VOLUME [2]: 65.9 fL
- MONOCYTE [2]: 3.27%
- NEUTROPHIL [2]: 8.67%
- PLATELET COUNT [2]: 1182.33 x10E3/uL
- ALANINE AMINOTRANSFERASE [2]: 37.5 u/L
- ALBUMIN [2]: 4 G/DL
- ALKALINE PHOSPHATASE [2]: 348.17 u/L
- ASPARTATE AMINOTRANSFERASE [2]: 71.67 u/L
- BLOOD UREA NITROGEN [2]: 13 mg/dL
- CARBON DIOXIDE [2]: 27 mmol/L
- CHLORIDE [2]: 104.67 MEQ/L
- CHOLESTEROL [2]: 73.33 mg/dL
- CREATINE PHOSPHOKINASE [2]: 211.33 u/L
- CREATININE [2]: 0.23 mg/dL
- GLUCOSE [2]: 155 mg/dL
- LACTATE DEHYDROGENASE [2]: 133.83 u/L
- LIPASE [2]: 11.17 u/L
- PHOSPHORUS [2]: 14.53 mg/dL
- POTASSIUM [2]: 6.65 MEQ/L
- SODIUM [2]: 148.17 MEQ/L
- TOTAL BILIRUBIN [2]: 0.28 mg/dL
- TOTAL PROTEIN [2]: 6.22 G/DL
- URIC ACID [2]: 1.57 mg/dL
- BASOPHIL [3]: 0.97%
- EOSINOPHIL [3]: 0.8%
- ERYTHROCYTE COUNT [3]: 7.02 x10E6/uL
- HEMATOCRIT [3]: 44.43%
- HEMOGLOBIN [3]: 14.58 G/DL
- LEUKOCYTE COUNT [3]: 16.49 x10E3/uL
- LYMPHOCYTE [3]: 79.03%
- MEAN CORPUSCULAR HEMOGLOBIN [3]: 20.85 pg
- MEAN CORPUSCULAR HEMOGLOBIN CONCENTRATION [3]: 32.78 G/DL
- MEAN CORPUSCULAR VOLUME [3]: 63.57 fL
- MONOCYTE [3]: 1.9%
- NEUTROPHIL [3]: 15.18%
- PLATELET COUNT [3]: 1184.33 x10E3/uL
- ALANINE AMINOTRANSFERASE [3]: 43 u/L
- ALBUMIN [3]: 4.25 G/DL
- ALKALINE PHOSPHATASE [3]: 409.67 u/L
- ASPARTATE AMINOTRANSFERASE [3]: 84.17 u/L
- BLOOD UREA NITROGEN [3]: 16 mg/dL
- CARBON DIOXIDE [3]: 35.17 mmol/L
- CHLORIDE [3]: 99.83 MEQ/L
- CHOLESTEROL [3]: 68.67 mg/dL
- CREATINE PHOSPHOKINASE [3]: 384.17 u/L
- CREATININE [3]: 0.43 mg/dL
- GLUCOSE [3]: 160 mg/dL
- LACTATE DEHYDROGENASE [3]: 115.33 u/L
- LIPASE [3]: 17.33 u/L
- PHOSPHORUS [3]: 10.68 mg/dL
- POTASSIUM [3]: 6.48 MEQ/L
- SODIUM [3]: 148.17 MEQ/L
- TOTAL BILIRUBIN [3]: 0.45 mg/dL
- TOTAL PROTEIN [3]: 6.57 G/DL
- URIC ACID [3]: 1.78 mg/dL
- BASOPHIL [4]: 0.8%
- EOSINOPHIL [4]: 0.35%
- ERYTHROCYTE COUNT [4]: 6.14 x10E6/uL
- HEMATOCRIT [4]: 40.2%
- HEMOGLOBIN [4]: 12.45 G/DL
- LEUKOCYTE COUNT [4]: 16.22 x10E3/uL
- LYMPHOCYTE [4]: 78.8%
- MEAN CORPUSCULAR HEMOGLOBIN [4]: 20.3 pg
- MEAN CORPUSCULAR HEMOGLOBIN CONCENTRATION [4]: 31 G/DL
- MEAN CORPUSCULAR VOLUME [4]: 65.45 fL
- MONOCYTE [4]: 2.65%
- NEUTROPHIL [4]: 16.45%
- PLATELET COUNT [4]: 1382 x10E3/uL
- ALANINE AMINOTRANSFERASE [4]: 38.5 u/L
- ALBUMIN [4]: 4.1 G/DL
- ALKALINE PHOSPHATASE [4]: 564 u/L
- ASPARTATE AMINOTRANSFERASE [4]: 78.5 u/L
- BLOOD UREA NITROGEN [4]: 14 mg/dL
- CARBON DIOXIDE [4]: 30.5 mmol/L
- CHLORIDE [4]: 106 MEQ/L
- CHOLESTEROL [4]: 63.5 mg/dL
- CREATINE PHOSPHOKINASE [4]: 161 u/L
- CREATININE [4]: 0.4 mg/dL
- GLUCOSE [4]: 168.5 mg/dL
- LACTATE DEHYDROGENASE [4]: 65.5 u/L
- LIPASE [4]: 14.5 u/L
- PHOSPHORUS [4]: 13.95 mg/dL
- POTASSIUM [4]: 6.9 MEQ/L
- SODIUM [4]: 148 MEQ/L
- TOTAL BILIRUBIN [4]: 0.5 mg/dL
- TOTAL PROTEIN [4]: 6.1 G/DL
- URIC ACID [4]: 1.65 mg/dL
- BASOPHIL [5]: 0.4%
- EOSINOPHIL [5]: 0.7%
- ERYTHROCYTE COUNT [5]: 5.95 x10E6/uL
- HEMATOCRIT [5]: 43%
- HEMOGLOBIN [5]: 13 G/DL
- LEUKOCYTE COUNT [5]: 15.09 x10E3/uL
- LYMPHOCYTE [5]: 67.85%
- MEAN CORPUSCULAR HEMOGLOBIN [5]: 21.85 pg
- MEAN CORPUSCULAR HEMOGLOBIN CONCENTRATION [5]: 30.25 G/DL
- MEAN CORPUSCULAR VOLUME [5]: 72.25 fL
- MONOCYTE [5]: 4.1%
- NEUTROPHIL [5]: 26.4%
- PLATELET COUNT [5]: 1312 x10E3/uL
- ALANINE AMINOTRANSFERASE [5]: 35 u/L
- ALBUMIN [5]: 4.1 G/DL
- ALKALINE PHOSPHATASE [5]: 356 u/L
- ASPARTATE AMINOTRANSFERASE [5]: 72.5 u/L
- BLOOD UREA NITROGEN [5]: 12 mg/dL
- CARBON DIOXIDE [5]: 29.5 mmol/L
- CHLORIDE [5]: 103.5 MEQ/L
- CHOLESTEROL [5]: 69.5 mg/dL
- CREATINE PHOSPHOKINASE [5]: 182 u/L
- CREATININE [5]: 0.25 mg/dL
- GLUCOSE [5]: 150.5 mg/dL
- LACTATE DEHYDROGENASE [5]: 149 u/L
- LIPASE [5]: 9 u/L
- PHOSPHORUS [5]: 13.05 mg/dL
- POTASSIUM [5]: 6.45 MEQ/L
- SODIUM [5]: 148.5 MEQ/L
- TOTAL BILIRUBIN [5]: 0.55 mg/dL
- TOTAL PROTEIN [5]: 6.3 G/DL
- URIC ACID [5]: 1.75 mg/dL
